Target: T1, HSA, human serum albumin (Homo sapiens, UniProt P02768)
T1 construct: gene ALB
Assay: fluorescence polarization, off-DNA
Assay type: binding

T1 sequence (P02768 25-609): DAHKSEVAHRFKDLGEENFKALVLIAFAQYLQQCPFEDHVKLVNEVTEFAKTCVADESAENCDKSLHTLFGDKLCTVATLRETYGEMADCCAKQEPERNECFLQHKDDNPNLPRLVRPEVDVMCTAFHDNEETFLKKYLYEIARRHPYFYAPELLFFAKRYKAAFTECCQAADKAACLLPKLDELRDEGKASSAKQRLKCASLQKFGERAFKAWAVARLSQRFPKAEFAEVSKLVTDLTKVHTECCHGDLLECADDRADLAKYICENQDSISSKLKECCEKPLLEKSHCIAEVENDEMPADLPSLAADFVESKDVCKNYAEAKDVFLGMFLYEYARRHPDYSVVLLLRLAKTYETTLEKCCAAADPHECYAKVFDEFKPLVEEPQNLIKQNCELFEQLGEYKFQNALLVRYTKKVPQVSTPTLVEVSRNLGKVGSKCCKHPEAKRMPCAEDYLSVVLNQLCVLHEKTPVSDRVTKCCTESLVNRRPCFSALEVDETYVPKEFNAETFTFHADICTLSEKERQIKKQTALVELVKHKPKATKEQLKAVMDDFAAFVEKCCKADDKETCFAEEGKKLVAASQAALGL

Compound | Kd [µM]
Cc1ccc(C(=O)NCC(=O)N[C@H](CCC(=O)N[C@@H](CCC(N)=O)C(=O)O)C(=O)N2CCc3nc(-c4ccccc4)ncc3C2)cc1 [compound 16, 16] | 11 ± 2
Cc1ccc(C(=O)NCC(=O)N[C@@H](CCC(=O)N[C@@H](CCC(N)=O)C(=O)O)C(=O)N2CCc3nc(-c4ccccc4)ncc3C2)cc1 [compound 17, 17] | 5 ± 3

— article PMC7675038, “A Single‐Stranded DNA‐Encoded Chemical Library Based on a Stereoisomeric Scaffold Enables Ligand Discovery by Modular Assembly of Building Blocks” (Advanced Science, 2020)
